What was measured:
Assay type in all cases: biochemical
p300 [1] = target: T1, p300 (Homo sapiens, UniProt Q09472); test: In-gel fluorescent detection of p300-catalyzed in vitro acylation of histone H3; conditions: CuAAC with az-Rho, in-gel fluorescence
T1 construct: made in house; host or cells: SF9 insect cells, baculovirus
Source text: CuAAC reactions were allowed to proceed at room temperature for 1 hr, and proteins were subsequently separated on 15% SDS-PAGE. The gels were soaked in destaining solution (40% MeOH, 10% AcOH, 50% H2O) for 1-2 hrs to remove the non-covalently bound az-Rho dye. After washing with dd H2O, the gel was subjected to in-gel fluorescence scanning.

p300 [2] = target: T1, p300; test: MALDI-TOF analysis of p300-catalyzed acylation of histone H3 peptide in vitro; conditions: 20 μM analog, MS analysis
Protocol: Cells were lysed in lysis buffer (20 mM Tris, pH 7.5, 500 mM NaCl, 4 mM MgCl2, 0.4 mM EDTA, 20% glycerol, 2 mM DTT, and supplemented with protease inhibitors). Clarified cell lysates were diluted to 300 mM NaCl, and NP-40 was added to 0.1% final concentration. Flag M2 agarose resin (Sigma) was added to the lysate and incubated for 4 hours at 4° C. […] Protein concentration and purity were estimated by comparison to BSA standards on SDS gels stained with Gelcode Blue stain (Pierce).

p300 [3] = target: T1, p300; test: In vitro acylation of histone H3 protein by p300 and mapping of modification sites (spectral counts, nano-HPLC/MS/MS)
Protocol: Following the in vitro reaction, proteins were separated on 15% SDS-PAGE and stained with coomassie brilliant blue R-250 staining solution (Bio-Rad). The gel slices containing histone H3 products were excised from each lane, washed with 50 mM ammonium bicarbonate (ABC) twice, destained with 50 mM ABC/CH3CN (50/50) twice and dehydrated with CH3CN. After drying the gel slices in a SpeedVac, gel slices were rehydrated with trypsin solution (2 μg of trypsin for each vial/gel slice) and incubated in 37° C. water bath for 18 hrs. Trypsin-digested peptides in solution were collected, dried in SpeedVac, resuspended in H2O (with 0.1% TFA) and submitted samples to nano-HPLC/MS/MS analysis (Thermo LTQ-Orbitrap in the Proteomic Resource Center at Rockefeller University).
LC-MS analysis was performed with a Dionex 3000 nano-HPLC coupled to an LTQ-Orbitrap ion trap mass spectrometer (ThermoFisher). Peptides were pressure loaded onto a home made 75 μm diameter, 15 cm C18 reverse phase column and separated with a gradient running from 95% buffer A (HPLC water with 0.1% formic acid) and 5% buffer B (HPLC grade acetonitrile with 0.1% formic acid) to 55% B over 30 min, next ramping to 95% B over 10 min and holding 95% B for 10 min. One full MS scan (300-2000 MW) was followed by 3 data dependent scans of the nth most intense ions with dynamic exclusion enabled. The spray voltage was set to 1.94 kV and the flow rate through the column was set to 0.25 μL/min.
Raw tandem mass spectra were searched against the human IPI protein database version 3.56 using SEQUEST search engine (Thermo Scientific). Cysteine carbamido-methylation was searched as fixed modification, while methionine/tryptophan oxidation, asparagines/glutamine deamindation, lysine/serine/threonine/cysteine acetylation, N-terminal acetylation/3-butynylation/4-pentynylation/5-hexynylation and lysine 3-butynylation/4-pentynylation/5-hexynylation were searched as variable modifications. Peptide tolerance was set as 10.0 ppm, fragment ion tolerance was set as 1.0 AMU and trypsin was set as the digestion enzyme. The resulting searching files were then analyzed and visualized by Scaffold 2 proteome software.
Each identified protein must contain at least 2 unique peptides that are exclusively assigned to this protein with a minimum protein identification probability of 99%. Each peptide spectrum must meet several selection thresholds including >95% for peptide identification probability, >1.0 for SEQUEST XCorr score, and ±6 ppm for actual minus calculated peptide mass.

[4] = lysine-modified peptide, H3 + acyl-CoA + p300
[5] = lysine-modified peptide, H3 + acyl-CoA, without p300

T1 sequence (Q09472 whole entry): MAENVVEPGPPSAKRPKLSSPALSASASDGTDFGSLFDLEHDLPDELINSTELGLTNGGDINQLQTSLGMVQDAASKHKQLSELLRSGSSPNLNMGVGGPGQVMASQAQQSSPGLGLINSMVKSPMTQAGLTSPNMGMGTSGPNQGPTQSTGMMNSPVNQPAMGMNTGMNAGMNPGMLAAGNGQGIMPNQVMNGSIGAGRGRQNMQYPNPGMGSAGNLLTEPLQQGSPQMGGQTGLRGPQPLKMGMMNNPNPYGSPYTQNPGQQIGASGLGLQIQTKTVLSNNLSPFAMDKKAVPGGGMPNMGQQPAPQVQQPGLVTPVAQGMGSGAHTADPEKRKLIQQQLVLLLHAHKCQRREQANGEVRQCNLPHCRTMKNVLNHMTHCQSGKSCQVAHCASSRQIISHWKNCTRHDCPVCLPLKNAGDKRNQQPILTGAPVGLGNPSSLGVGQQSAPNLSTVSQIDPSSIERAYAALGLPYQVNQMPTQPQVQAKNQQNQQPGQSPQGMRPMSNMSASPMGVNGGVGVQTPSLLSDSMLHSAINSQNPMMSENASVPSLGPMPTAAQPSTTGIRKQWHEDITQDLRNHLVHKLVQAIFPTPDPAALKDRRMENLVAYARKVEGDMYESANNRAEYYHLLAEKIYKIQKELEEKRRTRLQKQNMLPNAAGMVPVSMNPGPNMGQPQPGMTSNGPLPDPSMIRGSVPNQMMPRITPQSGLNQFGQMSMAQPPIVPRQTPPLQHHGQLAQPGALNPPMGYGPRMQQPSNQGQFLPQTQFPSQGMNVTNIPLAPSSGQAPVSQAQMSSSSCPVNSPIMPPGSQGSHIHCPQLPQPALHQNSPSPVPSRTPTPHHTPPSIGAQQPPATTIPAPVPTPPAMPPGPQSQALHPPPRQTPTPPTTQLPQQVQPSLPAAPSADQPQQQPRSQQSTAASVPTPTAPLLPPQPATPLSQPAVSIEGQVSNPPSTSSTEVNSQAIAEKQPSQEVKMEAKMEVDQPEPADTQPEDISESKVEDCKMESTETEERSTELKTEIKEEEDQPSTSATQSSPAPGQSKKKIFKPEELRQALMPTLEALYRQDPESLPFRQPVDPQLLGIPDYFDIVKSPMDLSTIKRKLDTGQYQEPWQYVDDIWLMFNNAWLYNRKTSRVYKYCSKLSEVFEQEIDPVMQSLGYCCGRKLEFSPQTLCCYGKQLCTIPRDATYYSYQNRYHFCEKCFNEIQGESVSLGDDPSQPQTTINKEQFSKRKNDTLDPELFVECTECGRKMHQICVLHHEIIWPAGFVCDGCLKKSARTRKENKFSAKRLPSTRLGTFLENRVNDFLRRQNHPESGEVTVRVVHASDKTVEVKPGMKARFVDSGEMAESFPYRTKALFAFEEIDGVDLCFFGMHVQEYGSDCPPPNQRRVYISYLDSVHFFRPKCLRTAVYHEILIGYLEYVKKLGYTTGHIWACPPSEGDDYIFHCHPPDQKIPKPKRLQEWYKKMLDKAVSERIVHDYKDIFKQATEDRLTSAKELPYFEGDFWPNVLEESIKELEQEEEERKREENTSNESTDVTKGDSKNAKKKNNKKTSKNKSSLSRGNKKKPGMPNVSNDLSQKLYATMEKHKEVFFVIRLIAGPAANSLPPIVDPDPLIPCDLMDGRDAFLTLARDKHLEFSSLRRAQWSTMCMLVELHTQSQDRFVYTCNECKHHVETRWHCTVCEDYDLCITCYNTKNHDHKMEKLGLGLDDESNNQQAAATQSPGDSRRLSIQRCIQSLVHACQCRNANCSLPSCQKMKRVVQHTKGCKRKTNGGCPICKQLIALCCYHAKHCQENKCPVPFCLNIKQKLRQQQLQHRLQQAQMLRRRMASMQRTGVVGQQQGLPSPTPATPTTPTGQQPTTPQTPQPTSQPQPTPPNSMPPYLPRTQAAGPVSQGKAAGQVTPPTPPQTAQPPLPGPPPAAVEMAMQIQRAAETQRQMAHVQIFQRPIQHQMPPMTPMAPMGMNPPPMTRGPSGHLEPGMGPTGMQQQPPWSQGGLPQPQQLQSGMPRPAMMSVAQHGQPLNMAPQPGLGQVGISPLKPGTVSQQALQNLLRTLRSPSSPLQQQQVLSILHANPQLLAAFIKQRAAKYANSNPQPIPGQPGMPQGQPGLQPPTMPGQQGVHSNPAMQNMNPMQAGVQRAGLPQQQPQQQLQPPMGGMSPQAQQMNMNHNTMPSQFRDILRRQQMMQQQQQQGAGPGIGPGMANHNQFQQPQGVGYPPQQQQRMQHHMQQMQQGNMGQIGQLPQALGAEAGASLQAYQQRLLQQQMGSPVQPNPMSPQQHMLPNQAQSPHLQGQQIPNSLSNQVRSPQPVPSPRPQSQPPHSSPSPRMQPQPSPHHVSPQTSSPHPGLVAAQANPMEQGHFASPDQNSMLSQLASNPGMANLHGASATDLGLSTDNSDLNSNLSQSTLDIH

## 5-hexynyl-CoA [Analog 3]
p300 [1]
  visualization of p300-acylation of histone H3: serve as sensitive reagents for visualizing p300-acylation of histone H3
p300 [2]
  utilization as acyl-CoA donor for p300-catalyzed acylation of histone H3 peptide: less efficient acyl-donor substrate
p300 [3]; H3 + acyl-CoA + p300
  Spectral Counts of Peptide EIAQDFK (73-79) (SEQ ID NO: 7): 89
  Spectral Counts of Peptide KLPFQR (64-69) (SEQ ID NO: 6): 8
  Spectral Counts of Peptide KQLATK (18-23) (SEQ ID NO: 1): 10
  Spectral Counts of Peptide KSAPATGGVK (27-36) (SEQ ID NO: 2): 38
  Spectral Counts of Peptide SAPATGGVK (28-36) SEQ ID NO: 3: 17
  Spectral Counts of Peptide STELLIR (57-63) (SEQ ID NO: 5): 16
  Spectral Counts of Peptide VTIMPK (117-122) (SEQ ID NO: 9): 8
  Spectral Counts of Peptide YRPGTVALR (41-49) (SEQ ID NO: 4): 57
p300 [3]; H3 + acyl-CoA, without p300
  Spectral Counts of Peptide EIAQDFK (73-79) (SEQ ID NO: 7): 74
  Spectral Counts of Peptide KQLATK (18-23) (SEQ ID NO: 1): 4
  Spectral Counts of Peptide KSAPATGGVK (27-36) (SEQ ID NO: 2): 36
  Spectral Counts of Peptide RVTIMPK (116-122) (SEQ ID NO: 8): 1
  Spectral Counts of Peptide SAPATGGVK (28-36) SEQ ID NO: 3: 12
  Spectral Counts of Peptide STELLIR (57-63) (SEQ ID NO: 5): 7
  Spectral Counts of Peptide VTIMPK (117-122) (SEQ ID NO: 9): 3
  Spectral Counts of Peptide YRPGTVALR (41-49) (SEQ ID NO: 4): 47
p300 [3]; [4]
  Spectral Counts of Peptide KQLATK (18-23, K18) (SEQ ID NO: 13): 19
  Spectral Counts of Peptide KQLATKAAR (18-26, K18, K23) (SEQ ID NO: 15): 18
  Spectral Counts of Peptide KSAPATGGVK (27-36, K27) (SEQ ID NO: 17): 12
  Spectral Counts of Peptide KSTGGKAPR (9-17, K9, K14) (SEQ ID NO: 11): 2
  Spectral Counts of Peptide KSTGGKAPR (9-17, K14) (SEQ ID NO: 10): 11
  Spectral Counts of Peptide QLATKAAR (19-26, K23) (SEQ ID NO: 16): 1
p300 [3]; [5]
  Spectral Counts of Peptide KQLATK (18-23, K18) (SEQ ID NO: 13): 2
  Spectral Counts of Peptide KSAPATGGVK (27-36, K27) (SEQ ID NO: 17): 2
  Spectral Counts of Peptide KSTGGKAPR (9-17, K14) (SEQ ID NO: 10): 2

— patent publication US20100203647A1, “Chemical Reporters of Protein Acylation” (THE ROCKEFELLER UNIVERSITY, priority 2008, published 2010)
